Measurements from patent publication US20090054403A1, “Treatment of Post-Traumatic Stress Disorder” (priority 2007, published 2009).
Entries after “also recorded” stand apart in the source; their conditions may differ.

Test system: parkinsonian symptoms
Test: Parkinsonian clinical rating scale (CRS) in MPTP-lesioned monkeys
Assay type: in vivo, squirrel monkeys (Saimiri sciureus)
Details: hydrochloride
Description: A total of 24 squirrel monkeys (Saimiri sciureus), fourteen females and ten males were used in this study. The twenty-four animals were randomly assigned to one of four treatment groups, with 6 animals per group. The groups consisted of the following (1) group A: placebo (2) group B: 1 mg/kg/day; (3) group C: 4 mg/kg/day; and (4) group D: 10 mg/kg/day. In Group B, one animal died acutely following MPTP-lesioning, and was not replaced.
Animals were lesioned by the administration of MPTP at a concentration of 2.0 mg/kg (free-base) via subcutaneous injection to achieve a parkinsonian state (see FIGS. 151-156). A post-MPTP lesioning behavioral assessment was carried out 2 to 4 weeks after the last MPTP-Iesioning. Locomotor activity was monitored by IRAM in 60-minute sessions for 3 to 5 days. Clinical behavior (CAS) was assessed by one to three individuals rating over a period of 3 to 5 days.
Animals were tested for response to L-Dopa and the efficacy of drug nepicastat. Testing was carried out 4 to 12 weeks after the last MPTP dose. Twenty-tour squirrel monkeys were randomly assigned to 4 groups; Group A (6 animals) received placebo (water) treatment; Group B (5 animals) received drug nepicastat at 1 mg/kg/day (0.5 mg/kg twice daily); Group C (6 animals) received 4 mg/kg/day (2 mg/kg twice daily); and Group D (6 animals) received 10 mg/kg/day (5 mg/kg twice daily).
L-Dopa was administered at a concentration of either 2.5, 5, or 7.5 mg/kg by oral gavage twice daily (at 10 am and 2 pm) for 7 consecutive days. Behavior was determined by IRAM and CRS. Clinical rating was carried out 60 to 90 minutes following the 10 am morning dose on the last 4 days of treatment. Raters (one to three individuals) were blinded to the different treatment groups. IRAM assessment were preformed for 90 minutes immediately following drug administration at 2 pm on the last 2 to 5 days of drug treatment. There was a minimum 2 day washout period between each treatment dose.
Drug nepicastat or water (as placebo) was administered for 12 days following a minimum 2 day washout after L-Dopa dosing. Drug was administered twice daily at 10 am and 2 pm by oral gavage. Behavior was rated by IRAM and CRS. The CRS was conducted in the morning, 60 to 90 minutes after the 10 am dose of nepicastat on the last 5 days of drug treatment. Raters (one to three individuals) were blinded to the different treatment groups. IRAM assessments were preformed for 90 minutes immediately following drug administration at 2 pm on the last 5 days of drug treatment.
Eight parkinsonian features were rated in each animal and the total score was derived from the sum of these eight features. […]

Cl.NCc1c[nH]c(=S)n1[C@H]1CCc2c(F)cc(F)cc2C1 [nepicastat, (S)-5-Aminomethyl-1-(5,7-difluoro-1,2,3,4-tetrahydronaphth-2-yl)-2,3-dihydro-2-thioxo-1H-imidazole hydrochloride]
CRS / parkinsonian symptoms compared to placebo (1, 4, 10 mg/kg/day, 12 days, non-pairwise): no detectable differences; also recorded: no significant effect
CRS / parkinsonian symptoms compared to post-MPTP (pre-treatment) state (nepicastat 4 and 10 mg/kg/day, pairwise): significant improvement; also recorded: significant effect
